In ChEMBL document CHEMBL5696443 (Clin Cancer Res, 2016):
Each block holds one molecule with its values, some of them ahead of it. Calls of active or inactive are those of the source. No cut-off for these calls is given here.

Tests used:
[1] = Average plasma concentration in CB-17/SCID mouse implanted with mouse BaF3 cells expressing EML4-ALK G1202R mutant at 60 mg/kg, po administered once daily for 7 days by LC-MS/MS analysis; format: ADME, organism-based; conditions: in vivo, 168 h, time 7 day
BaF3 [2] = experiment: animal or person; conditions: Mus musculus, BaF3, po, 192 h, read-out: TGI
[3] = Toxicity in CB-17/SCID mouse implanted with ALK positive mouse BaF3 cells expressing EML4-ALK G1202R mutant assessed as effect on body weight at 60 mg/kg, po administered once daily and measured after 6 days; format: organism-based; conditions: in vivo, 144 h, time 6 day
[4] = Protein binding in human plasma assessed as unbound fraction at 600 mg, administered twice a day; format: ADME, cell-free
in vitro = conditions: mouse, BaF3 cells
[5] = Protein binding in human plasma at 600 mg, administered twice a day; format: ADME, cell-free; conditions: read-out: PPB (converted)
BaF3 [6] = experiment: Antitumor activity against mouse BaF3 cells expressing native EML4-ALK implanted in mouse assessed as tumor regression at 60 mg/kg, po administered once daily and measured after 8 days relative to control; format: functional; conditions: time 8 day
BaF3 [7] = experiment: animal or person; conditions: Mus musculus, BaF3, po, 192 h, read-out: TGI; remark: listed apart in the source
[8] = test system: EML4-ALK (Homo sapiens), Q9UM73+Q9HC35 [S1206F]; conditions: BaF3, dose 1000.0 nmol/L, time 3-5 weeks
[9] = test system: EML4-ALK (Homo sapiens), Q9UM73+Q9HC35 [C1156Y]; conditions: BaF3, dose 1000.0 nmol/L, time 3-5 weeks
[10] = test system: EML4-ALK (Homo sapiens), Q9UM73+Q9HC35 [F1174C]; conditions: BaF3, dose 200.0 nmol/L, time 3-5 weeks
[11] = test system: EML4-ALK (Homo sapiens), Q9UM73+Q9HC35 [L1196M]; conditions: BaF3, dose 1000.0 nmol/L, time 3-5 weeks
[12] = test system: EML4-ALK (Homo sapiens), Q9UM73+Q9HC35 [L1152P]; conditions: BaF3, dose 1000.0 nmol/L, time 3-5 weeks
[13] = test system: EML4-ALK (Homo sapiens), Q9UM73+Q9HC35 [F1174C]; conditions: BaF3, dose 1000.0 nmol/L, time 3-5 weeks
[14] = test system: EML4-ALK (Homo sapiens), Q9UM73+Q9HC35 [S1206Y]; conditions: BaF3, time 3-5 weeks
[15] = test system: EML4-ALK (Homo sapiens), Q9UM73+Q9HC35 [L1198F]; conditions: BaF3, dose 500.0 nmol/L, time 3-5 weeks
[16] = test system: EML4-ALK (Homo sapiens), Q9UM73+Q9HC35 [F1174C]; conditions: BaF3, time 3-5 weeks
[17] = test system: EML4-ALK (Homo sapiens), Q9UM73+Q9HC35 [L1198F]; conditions: BaF3, dose 1000.0 nmol/L, time 3-5 weeks
[18] = test system: EML4-ALK (Homo sapiens), Q9UM73+Q9HC35 [G1202R]; conditions: BaF3, time 3-5 weeks
[19] = test system: EML4-ALK (Homo sapiens), Q9UM73+Q9HC35 [S1206F]; conditions: BaF3, time 3-5 weeks
[20] = test system: EML4-ALK (Homo sapiens), Q9UM73+Q9HC35 [G1269A]; conditions: BaF3, dose 1000.0 nmol/L, time 3-5 weeks
[21] = test system: EML4-ALK (Homo sapiens), Q9UM73+Q9HC35 [F1174V]; conditions: BaF3, dose 200.0 nmol/L, time 3-5 weeks
[22] = Protein binding in human plasma assessed as unbound fraction at 750 mg, administered once a day; format: ADME, cell-free
[23] = test system: EML4-ALK (Homo sapiens), Q9UM73+Q9HC35 [I1171N]; conditions: BaF3, dose 1000.0 nmol/L, time 3-5 weeks
[24] = test system: EML4-ALK (Homo sapiens), Q9UM73+Q9HC35 [F1174V]; conditions: BaF3, dose 1000.0 nmol/L, time 3-5 weeks
[25] = test system: EML4-ALK (Homo sapiens), Q9UM73+Q9HC35 [L1152R]; conditions: BaF3, time 3-5 weeks
[26] = test system: EML4-ALK (Homo sapiens), Q9UM73+Q9HC35 [L1198F]; conditions: BaF3, time 3-5 weeks
[27] = test system: EML4-ALK (Homo sapiens), Q9UM73+Q9HC35 [F1174L]; conditions: BaF3, dose 1000.0 nmol/L, time 3-5 weeks
[28] = test system: EML4-ALK (Homo sapiens), Q9UM73+Q9HC35 [UNDEFINED MUTATION]; conditions: BaF3, dose 1000.0 nmol/L, time 3-5 weeks
[29] = test system: EML4-ALK (Homo sapiens), Q9UM73+Q9HC35 [L1152R]; conditions: BaF3, dose 1000.0 nmol/L, time 3-5 weeks
[30] = test system: EML4-ALK (Homo sapiens), Q9UM73+Q9HC35 [S1206Y]; conditions: BaF3, dose 1000.0 nmol/L, time 3-5 weeks
[31] = test system: EML4-ALK (Homo sapiens), Q9UM73+Q9HC35 [G1202R]; conditions: BaF3, dose 1000.0 nmol/L, time 3-5 weeks
[32] = test system: EML4-ALK (Homo sapiens), Q9UM73+Q9HC35 [S1206A]; conditions: BaF3, dose 200.0 nmol/L, time 3-5 weeks
[33] = Toxicity in CB-17/SCID mouse implanted with ALK positive mouse BaF3 cells expressing EML4-ALK G1202R mutant assessed as effect on body weight at 50 mg/kg, po administered once daily and measured after 6 days; format: organism-based; conditions: in vivo, 144 h, time 6 day
[34] = Protein binding in human plasma at 750 mg, administered once a day; format: ADME, cell-free; conditions: read-out: PPB (converted)
[35] = test system: EML4-ALK (Homo sapiens), Q9UM73+Q9HC35 [E1210K]; conditions: BaF3, dose 1000.0 nmol/L, time 3-5 weeks
[36] = test system: EML4-ALK (Homo sapiens), Q9UM73+Q9HC35 [L1152P]; conditions: BaF3, time 3-5 weeks
[37] = test system: EML4-ALK (Homo sapiens), Q9UM73+Q9HC35 [V1180L]; conditions: BaF3, dose 1000.0 nmol/L, time 3-5 weeks
[38] = test system: EML4-ALK (Homo sapiens), Q9UM73+Q9HC35 [L1198F]; conditions: BaF3, dose 200.0 nmol/L, time 3-5 weeks
[39] = test system: EML4-ALK (Homo sapiens), Q9UM73+Q9HC35 [D1203N]; conditions: BaF3, dose 1000.0 nmol/L, time 3-5 weeks
BaF3 [40] = experiment: Antitumor activity against mouse BaF3 cells expressing native EML4-ALK implanted in mouse assessed as tumor growth inhibition at 50 mg/kg, po administered once daily and measured after 8 days relative to control; format: functional; conditions: BaF3, 192 h, time 8 day, read-out: TGI
[41] = test system: EML4-ALK (Homo sapiens), Q9UM73+Q9HC35 [F1174I]; conditions: BaF3, dose 200.0 nmol/L, time 3-5 weeks

Cave [1]: 8.817 µM
fraction unbound [4]: 0.003
IC50 (in vitro): 2.07 µM
IC90 (in vitro): 7.46 µM
fraction unbound [5]: 0.003
Compound: CCc1cc2c(cc1N1CCC(N3CCOCC3)CC1)C(C)(C)c1[nH]c3cc(C#N)ccc3c1C2=O [ALECTINIB]
inhibition in vivo at 60 mg/kg (BaF3 [2]): 0%
Activity [3]: Non-Toxic
Activity (BaF3 [6]): 95%

inhibition [8]: Active
inhibition [9]: Active
inhibition [10]: inactive
inhibition [11]: Active
inhibition [12]: Active
inhibition [13]: Active
IC90 [14]: 0.099 µM
inhibition [15]: inactive
IC90 [16]: 0.229 µM
inhibition [17]: Active
IC90 [18]: 1.04 µM
IC90 [19]: 0.099 µM
inhibition [20]: Active
inhibition [21]: inactive
fraction unbound [22]: 0.028
inhibition [23]: Active
inhibition [24]: Active
IC90 [25]: 1.27 µM
IC90 [26]: 1.32 µM
inhibition [27]: Active
inhibition [28]: Active
inhibition [29]: Active
IC50 (in vitro): 1.67 µM
IC90 (in vitro): 2.84 µM
inhibition [30]: Active
inhibition [31]: Active
inhibition [32]: inactive
fraction unbound [34]: 0.028
inhibition [35]: Active
IC90 [36]: 1.23 µM
inhibition [37]: Active
inhibition [38]: inactive
inhibition [39]: Active
inhibition [41]: inactive
Compound: Cc1cc(Nc2ncc(Cl)c(Nc3ccccc3S(=O)(=O)C(C)C)n2)c(OC(C)C)cc1C1CCNCC1 [CERITINIB]
inhibition in vivo at 50 mg/kg (BaF3 [7]): 14%
Activity [33]: Non-Toxic
inhibition in vivo at 50 mg/kg (BaF3 [40]): 97%
